Measurements published in the kinase profiling compilation of Christmann-Franck et al. (2016).

Columns and labels:
Assay in all cases: radiometric filter-binding kinase assay
[1] = target: MARK3 (human) (UniProt P27448)
[2] = target: INSRR (human) (UniProt P14616)
[3] = target: CSNK2A1 (human) (UniProt P68400)
[4] = test system: ROCK2 (rat); details: accession and sequence are those of the human protein
[5] = target: MAPK9 (human) (UniProt P45984)
[6] = test system: RPS6KB1 (human), P23443 [T412E]
[7] = target: FLT1 (human) (UniProt P17948)
[8] = target: HIPK3 (human) (UniProt Q9H422)
[9] = target: PIM1 (human) (UniProt P11309)
[10] = target: IKBKE (human) (UniProt Q14164)
[11] = target: MAP3K7 TAB1 (human) (UniProt Q15750+O43318)
[12] = target: CDK2 CCNA2 (human) (UniProt P20248+P24941)
[13] = target: PKN2 (human) (UniProt Q16513)
[14] = target: MAPK1 (human) (UniProt P28482)
[15] = target: STK3 (human) (UniProt Q13188)
[16] = target: MAPKAPK2 (human) (UniProt P49137)
[17] = target: DYRK3 (human) (UniProt O43781)
[18] = target: PRKACA (human) (UniProt P17612)
[19] = target: RPS6KA1 KD1 KD2 (human) (UniProt Q15418)
[20] = target: MAPK15 (human) (UniProt Q8TD08)
[21] = target: MAPK12 (human) (UniProt P53778)
[22] = target: NUAK1 (human) (UniProt O60285)
[23] = target: CHEK1 (human) (UniProt O14757)
[24] = target: IKBKB (human) (UniProt O14920)
[25] = target: NEK6 (human) (UniProt Q9HC98)
[26] = test system: SGK1 (human), O00141 [S422D]
[27] = target: MAPK11 (human) (UniProt Q15759)
[28] = target: MARK1 (human) (UniProt Q9P0L2)
[29] = target: EPHB4 (human) (UniProt P54760)
[30] = target: MKNK2 (human) (UniProt Q9HBH9)
[31] = target: NTRK1 (human) (UniProt P04629)
[32] = target: SRC (human) (UniProt P12931)
[33] = target: RIPK2 (human) (UniProt O43353)
[34] = target: MAPK14 (human) (UniProt Q16539)
[35] = target: MELK (human) (UniProt Q14680)

DYRK3 (human), sequence (O43781 whole entry, looked up): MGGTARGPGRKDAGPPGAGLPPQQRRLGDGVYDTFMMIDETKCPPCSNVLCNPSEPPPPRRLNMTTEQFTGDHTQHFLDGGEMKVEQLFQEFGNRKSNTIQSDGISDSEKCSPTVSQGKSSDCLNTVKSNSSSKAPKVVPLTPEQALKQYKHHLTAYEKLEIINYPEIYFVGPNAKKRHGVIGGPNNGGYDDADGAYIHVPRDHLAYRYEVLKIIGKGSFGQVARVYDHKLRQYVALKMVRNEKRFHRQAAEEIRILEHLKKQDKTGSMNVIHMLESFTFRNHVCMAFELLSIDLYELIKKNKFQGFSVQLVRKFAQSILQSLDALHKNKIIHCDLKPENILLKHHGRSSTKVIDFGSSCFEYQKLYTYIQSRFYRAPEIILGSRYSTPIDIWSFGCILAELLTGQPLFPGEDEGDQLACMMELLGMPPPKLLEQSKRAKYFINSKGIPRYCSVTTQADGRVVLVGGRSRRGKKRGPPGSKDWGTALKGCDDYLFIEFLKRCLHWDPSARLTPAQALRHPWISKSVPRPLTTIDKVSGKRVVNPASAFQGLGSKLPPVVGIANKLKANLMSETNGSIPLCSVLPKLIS
NUAK1 (human), sequence (O60285 whole entry, looked up): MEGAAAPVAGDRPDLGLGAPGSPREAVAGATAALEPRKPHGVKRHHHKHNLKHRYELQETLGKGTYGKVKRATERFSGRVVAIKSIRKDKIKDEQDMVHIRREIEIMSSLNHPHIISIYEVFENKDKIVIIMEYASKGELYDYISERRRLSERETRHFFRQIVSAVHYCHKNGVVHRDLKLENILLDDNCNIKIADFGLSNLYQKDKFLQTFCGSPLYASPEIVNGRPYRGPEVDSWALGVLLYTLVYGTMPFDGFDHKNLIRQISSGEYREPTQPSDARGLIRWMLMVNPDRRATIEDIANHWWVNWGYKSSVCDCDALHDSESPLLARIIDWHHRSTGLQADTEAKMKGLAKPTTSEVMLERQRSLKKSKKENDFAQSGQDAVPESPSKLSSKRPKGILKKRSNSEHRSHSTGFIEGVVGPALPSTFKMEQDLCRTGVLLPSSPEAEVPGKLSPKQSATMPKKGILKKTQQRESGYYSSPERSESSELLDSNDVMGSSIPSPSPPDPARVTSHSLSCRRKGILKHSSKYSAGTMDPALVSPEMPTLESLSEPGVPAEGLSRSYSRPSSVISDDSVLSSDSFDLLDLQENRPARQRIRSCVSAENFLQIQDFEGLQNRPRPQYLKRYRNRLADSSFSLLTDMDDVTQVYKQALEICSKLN
MARK1 (human), sequence (Q9P0L2 whole entry, looked up): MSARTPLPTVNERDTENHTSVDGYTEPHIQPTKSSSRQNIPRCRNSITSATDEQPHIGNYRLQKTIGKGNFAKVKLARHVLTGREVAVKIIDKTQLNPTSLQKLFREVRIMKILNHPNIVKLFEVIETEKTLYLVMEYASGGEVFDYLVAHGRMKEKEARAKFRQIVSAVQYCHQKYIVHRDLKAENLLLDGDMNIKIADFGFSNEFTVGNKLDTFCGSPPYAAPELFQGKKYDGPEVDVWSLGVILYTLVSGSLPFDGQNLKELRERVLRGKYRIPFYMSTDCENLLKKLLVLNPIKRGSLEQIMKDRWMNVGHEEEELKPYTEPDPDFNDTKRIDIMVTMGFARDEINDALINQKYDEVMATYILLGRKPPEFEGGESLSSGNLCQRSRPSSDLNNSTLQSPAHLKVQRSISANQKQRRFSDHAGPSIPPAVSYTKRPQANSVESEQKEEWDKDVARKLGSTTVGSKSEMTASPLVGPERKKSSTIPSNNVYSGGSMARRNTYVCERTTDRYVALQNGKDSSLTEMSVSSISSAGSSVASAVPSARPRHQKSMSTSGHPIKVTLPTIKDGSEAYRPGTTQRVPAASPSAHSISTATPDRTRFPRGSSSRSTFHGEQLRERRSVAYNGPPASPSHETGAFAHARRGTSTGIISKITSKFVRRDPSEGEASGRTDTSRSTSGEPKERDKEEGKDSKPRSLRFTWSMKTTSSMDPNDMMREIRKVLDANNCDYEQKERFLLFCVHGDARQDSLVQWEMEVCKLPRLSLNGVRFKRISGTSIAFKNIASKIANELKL
EPHB4 (human), sequence (P54760 whole entry, looked up): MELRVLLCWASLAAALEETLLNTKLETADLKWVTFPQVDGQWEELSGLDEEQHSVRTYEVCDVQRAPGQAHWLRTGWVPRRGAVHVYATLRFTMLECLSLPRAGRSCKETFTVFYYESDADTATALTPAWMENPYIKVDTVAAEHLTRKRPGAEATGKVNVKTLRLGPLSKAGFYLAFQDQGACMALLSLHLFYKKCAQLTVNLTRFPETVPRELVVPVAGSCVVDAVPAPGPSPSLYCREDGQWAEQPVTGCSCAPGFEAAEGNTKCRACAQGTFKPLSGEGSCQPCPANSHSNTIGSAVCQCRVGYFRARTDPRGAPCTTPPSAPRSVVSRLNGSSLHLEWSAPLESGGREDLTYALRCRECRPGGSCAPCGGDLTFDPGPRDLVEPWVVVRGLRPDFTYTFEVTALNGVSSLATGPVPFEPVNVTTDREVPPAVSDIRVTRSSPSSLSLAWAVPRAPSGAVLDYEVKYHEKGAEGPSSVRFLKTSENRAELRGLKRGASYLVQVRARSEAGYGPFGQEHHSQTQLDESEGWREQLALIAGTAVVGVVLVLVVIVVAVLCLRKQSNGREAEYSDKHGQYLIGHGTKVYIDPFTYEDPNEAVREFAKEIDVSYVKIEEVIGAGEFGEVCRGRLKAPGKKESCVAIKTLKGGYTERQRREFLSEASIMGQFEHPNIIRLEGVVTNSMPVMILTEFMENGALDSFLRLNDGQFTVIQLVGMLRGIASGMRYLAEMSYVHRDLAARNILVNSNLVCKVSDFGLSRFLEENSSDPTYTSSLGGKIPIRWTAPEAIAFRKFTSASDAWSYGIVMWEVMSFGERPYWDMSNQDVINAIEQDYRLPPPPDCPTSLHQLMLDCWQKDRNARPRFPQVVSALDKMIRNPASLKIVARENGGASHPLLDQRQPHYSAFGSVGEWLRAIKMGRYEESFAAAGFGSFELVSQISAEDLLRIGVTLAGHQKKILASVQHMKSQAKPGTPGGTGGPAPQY
RIPK2 (human), sequence (O43353 whole entry, looked up): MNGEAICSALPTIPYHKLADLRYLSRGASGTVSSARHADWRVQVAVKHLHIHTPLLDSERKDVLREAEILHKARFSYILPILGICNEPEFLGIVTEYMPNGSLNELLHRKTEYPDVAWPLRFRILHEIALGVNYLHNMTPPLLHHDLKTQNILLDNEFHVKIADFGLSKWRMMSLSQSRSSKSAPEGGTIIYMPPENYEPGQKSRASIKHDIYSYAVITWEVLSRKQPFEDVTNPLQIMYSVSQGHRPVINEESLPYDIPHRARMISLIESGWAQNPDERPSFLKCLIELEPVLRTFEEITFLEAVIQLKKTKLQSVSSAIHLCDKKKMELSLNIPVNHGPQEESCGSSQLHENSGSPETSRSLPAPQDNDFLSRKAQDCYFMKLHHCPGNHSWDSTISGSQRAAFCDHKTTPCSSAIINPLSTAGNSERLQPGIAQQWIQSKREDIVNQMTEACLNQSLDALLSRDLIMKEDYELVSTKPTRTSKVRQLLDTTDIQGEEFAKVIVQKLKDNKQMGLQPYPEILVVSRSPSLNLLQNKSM
IKBKE (human), sequence (Q14164 whole entry, looked up): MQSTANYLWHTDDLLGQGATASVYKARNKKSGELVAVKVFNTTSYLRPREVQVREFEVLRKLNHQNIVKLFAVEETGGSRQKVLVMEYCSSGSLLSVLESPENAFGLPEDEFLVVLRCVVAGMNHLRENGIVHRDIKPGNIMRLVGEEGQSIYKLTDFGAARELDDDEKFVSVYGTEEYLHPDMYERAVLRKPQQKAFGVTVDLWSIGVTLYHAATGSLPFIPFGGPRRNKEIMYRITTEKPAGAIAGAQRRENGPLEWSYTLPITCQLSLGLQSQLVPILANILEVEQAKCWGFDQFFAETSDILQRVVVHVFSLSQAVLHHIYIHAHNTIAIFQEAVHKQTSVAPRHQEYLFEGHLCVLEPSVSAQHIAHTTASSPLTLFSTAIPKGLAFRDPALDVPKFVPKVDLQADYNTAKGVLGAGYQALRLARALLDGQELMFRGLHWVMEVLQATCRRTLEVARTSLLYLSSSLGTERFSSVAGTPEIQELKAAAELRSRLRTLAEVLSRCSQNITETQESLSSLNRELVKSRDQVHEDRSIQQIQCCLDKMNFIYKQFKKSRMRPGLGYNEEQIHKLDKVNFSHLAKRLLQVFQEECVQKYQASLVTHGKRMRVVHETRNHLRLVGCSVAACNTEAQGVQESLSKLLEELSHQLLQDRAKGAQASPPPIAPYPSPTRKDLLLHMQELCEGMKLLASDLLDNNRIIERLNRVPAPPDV
PIM1 (human), sequence (P11309 whole entry, looked up): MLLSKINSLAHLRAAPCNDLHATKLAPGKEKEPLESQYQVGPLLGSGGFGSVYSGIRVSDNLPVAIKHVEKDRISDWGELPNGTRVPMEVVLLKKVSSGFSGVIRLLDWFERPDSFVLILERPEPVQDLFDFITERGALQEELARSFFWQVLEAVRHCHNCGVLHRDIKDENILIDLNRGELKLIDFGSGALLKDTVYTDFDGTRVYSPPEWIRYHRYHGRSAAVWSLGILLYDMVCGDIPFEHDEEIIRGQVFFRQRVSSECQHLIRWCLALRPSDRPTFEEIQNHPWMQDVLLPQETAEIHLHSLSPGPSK
CSNK2A1 (human), sequence (P68400 whole entry, looked up): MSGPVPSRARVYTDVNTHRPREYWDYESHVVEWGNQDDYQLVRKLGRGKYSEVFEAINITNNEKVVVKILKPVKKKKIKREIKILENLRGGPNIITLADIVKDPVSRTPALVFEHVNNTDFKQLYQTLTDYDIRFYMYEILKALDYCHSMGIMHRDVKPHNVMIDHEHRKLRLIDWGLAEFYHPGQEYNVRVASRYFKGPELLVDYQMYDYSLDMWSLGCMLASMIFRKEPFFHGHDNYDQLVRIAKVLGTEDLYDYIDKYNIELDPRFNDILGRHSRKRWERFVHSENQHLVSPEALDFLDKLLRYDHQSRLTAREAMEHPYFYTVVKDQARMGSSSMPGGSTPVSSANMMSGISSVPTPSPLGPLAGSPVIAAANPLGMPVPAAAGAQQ

O=C1c2ccccc2-c2n[nH]c3cccc1c23
residual activity ([1]; compound 1.0 µM): 41%
residual activity ([1]; compound 10.0 µM): 14%
residual activity ([2]; compound 1.0 µM): 55%
residual activity ([2]; compound 10.0 µM): 28%
residual activity ([3]; compound 1.0 µM): 81%
residual activity ([3]; compound 10.0 µM): 28%
residual activity ([4]; compound 1.0 µM): 75%
residual activity ([4]; compound 10.0 µM): 32%
residual activity ([5]; compound 1.0 µM): 50%
residual activity ([5]; compound 10.0 µM): 15%
residual activity ([6]; compound 1.0 µM): 75%
residual activity ([6]; compound 10.0 µM): 30%
residual activity ([7]; compound 1.0 µM): 29%
residual activity ([7]; compound 10.0 µM): 14%
residual activity ([8]; compound 1.0 µM): 90%
residual activity ([8]; compound 10.0 µM): 33%
residual activity ([9]; compound 1.0 µM): 43%
residual activity ([9]; compound 10.0 µM): 15%
residual activity ([10]; compound 1.0 µM): 79%
residual activity ([10]; compound 10.0 µM): 39%
residual activity ([11]; compound 1.0 µM): 30%
residual activity ([11]; compound 10.0 µM): 8%
residual activity ([12]; compound 1.0 µM): 50%
residual activity ([12]; compound 10.0 µM): 14%
residual activity ([13]; compound 1.0 µM): 86%
residual activity ([13]; compound 10.0 µM): 64%
residual activity ([14]; compound 1.0 µM): 83%
residual activity ([14]; compound 10.0 µM): 62%
residual activity ([15]; compound 1.0 µM): 40%
residual activity ([15]; compound 10.0 µM): 29%
residual activity ([16]; compound 1.0 µM): 95%
residual activity ([16]; compound 10.0 µM): 77%
residual activity ([17]; compound 1.0 µM): 45%
residual activity ([17]; compound 10.0 µM): 10%
residual activity ([18]; compound 1.0 µM): 88%
residual activity ([18]; compound 10.0 µM): 88%
residual activity ([19]; compound 1.0 µM): 66%
residual activity ([19]; compound 10.0 µM): 26%
residual activity ([20]; compound 1.0 µM): 39%
residual activity ([20]; compound 10.0 µM): 6%
residual activity ([21]; compound 1.0 µM): 98%
residual activity ([21]; compound 10.0 µM): 77%
residual activity ([22]; compound 1.0 µM): 38%
residual activity ([22]; compound 10.0 µM): 21%
residual activity ([23]; compound 1.0 µM): 59%
residual activity ([23]; compound 10.0 µM): 26%
residual activity ([24]; compound 1.0 µM): 75%
residual activity ([24]; compound 10.0 µM): 38%
residual activity ([25]; compound 1.0 µM): 95%
residual activity ([25]; compound 10.0 µM): 66%
residual activity ([26]; compound 1.0 µM): 72%
residual activity ([26]; compound 10.0 µM): 30%
residual activity ([27]; compound 1.0 µM): 102%
residual activity ([27]; compound 10.0 µM): 38%
residual activity ([28]; compound 1.0 µM): 68%
residual activity ([28]; compound 10.0 µM): 29%
residual activity ([29]; compound 1.0 µM): 113%
residual activity ([29]; compound 10.0 µM): 78%
residual activity ([30]; compound 1.0 µM): 61%
residual activity ([30]; compound 10.0 µM): 29%
residual activity ([31]; compound 1.0 µM): 27%
residual activity ([31]; compound 10.0 µM): 14%
residual activity ([32]; compound 1.0 µM): 81%
residual activity ([32]; compound 10.0 µM): 41%
residual activity ([33]; compound 1.0 µM): 80%
residual activity ([33]; compound 10.0 µM): 48%
residual activity ([34]; compound 1.0 µM): 94%
residual activity ([34]; compound 10.0 µM): 86%
residual activity ([35]; compound 1.0 µM): 77%
residual activity ([35]; compound 10.0 µM): 109%

Cc1nc(N)sc1-c1csc(Nc2cccnc2)n1
residual activity ([1]; compound 10.0 µM): 84%
residual activity ([2]; compound 10.0 µM): 40%
residual activity ([2]; compound 100.0 µM): 22%
residual activity ([3]; compound 10.0 µM): 63%
residual activity ([4]; compound 10.0 µM): 80%
residual activity ([5]; compound 10.0 µM): 90%
residual activity ([5]; compound 100.0 µM): 64%
residual activity ([6]; compound 10.0 µM): 64%
residual activity ([7]; compound 10.0 µM): 45%
residual activity ([7]; compound 100.0 µM): 6%
residual activity ([8]; compound 10.0 µM): 60%
residual activity ([9]; compound 10.0 µM): 22%
residual activity ([9]; compound 100.0 µM): 6%
residual activity ([10]; compound 10.0 µM): 67%
residual activity ([10]; compound 100.0 µM): 4%
residual activity ([11]; compound 10.0 µM): 79%
residual activity ([12]; compound 10.0 µM): 63%
residual activity ([13]; compound 10.0 µM): 76%
residual activity ([14]; compound 10.0 µM): 93%
residual activity ([14]; compound 100.0 µM): 95%
residual activity ([15]; compound 10.0 µM): 76%
residual activity ([16]; compound 10.0 µM): 92%
residual activity ([16]; compound 100.0 µM): 5%
residual activity ([17]; compound 10.0 µM): 45%
residual activity ([17]; compound 100.0 µM): 6%
residual activity ([18]; compound 10.0 µM): 91%
residual activity ([19]; compound 10.0 µM): 105%
residual activity ([20]; compound 10.0 µM): 43%
residual activity ([21]; compound 10.0 µM): 15%
residual activity ([21]; compound 100.0 µM): 9%
residual activity ([22]; compound 10.0 µM): 42%
residual activity ([22]; compound 100.0 µM): 11%
residual activity ([23]; compound 10.0 µM): 90%
residual activity ([24]; compound 10.0 µM): 56%
residual activity ([25]; compound 10.0 µM): 73%
residual activity ([26]; compound 10.0 µM): 96%
residual activity ([27]; compound 10.0 µM): 96%
residual activity ([27]; compound 100.0 µM): 87%
residual activity ([28]; compound 10.0 µM): 82%
residual activity ([29]; compound 10.0 µM): 97%
residual activity ([30]; compound 10.0 µM): 65%
residual activity ([31]; compound 10.0 µM): 73%
residual activity ([32]; compound 10.0 µM): 91%
residual activity ([33]; compound 10.0 µM): 52%
residual activity ([33]; compound 100.0 µM): 23%
residual activity ([34]; compound 10.0 µM): 91%
residual activity ([34]; compound 100.0 µM): 78%
residual activity ([35]; compound 10.0 µM): 73%
